Here are results for 21 compounds from patent EP3800188A1, “SUBSTITUTED PYRAZOLOPYRIMIDINES AS IRAK4 INHIBITORS” (Bayer AG, priority 2019, dated 2021).

For one data set, the target named is T1, human IRAK4 (Homo sapiens, UniProt Q9NWZ3).
T1 construct: GST (N); made in house; host or cells: baculovirus-infected Hi5 (BTI-TN-5B1-4) insect cells
T1 sequence (Q9NWZ3 1-460): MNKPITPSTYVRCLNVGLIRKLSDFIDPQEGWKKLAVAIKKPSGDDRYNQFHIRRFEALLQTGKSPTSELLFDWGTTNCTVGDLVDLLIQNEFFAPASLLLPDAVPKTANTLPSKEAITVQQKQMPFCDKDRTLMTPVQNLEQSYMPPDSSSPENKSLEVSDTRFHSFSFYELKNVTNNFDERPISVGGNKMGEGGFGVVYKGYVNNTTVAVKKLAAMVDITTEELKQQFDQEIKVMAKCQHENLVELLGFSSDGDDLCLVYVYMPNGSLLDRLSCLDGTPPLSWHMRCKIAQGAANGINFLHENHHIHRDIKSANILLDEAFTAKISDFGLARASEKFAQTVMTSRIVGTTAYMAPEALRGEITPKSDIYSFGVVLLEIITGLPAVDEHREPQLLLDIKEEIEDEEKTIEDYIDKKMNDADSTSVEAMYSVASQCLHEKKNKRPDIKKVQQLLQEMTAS
Description: Human IRAK4 kinase activity inhibition assay (IRAK4 TR-FRET assay). It counts as biochemical. The conditions noted are these: 1 mM ATP, GST-human IRAK4, average or median values. The method, boiled down:
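Signal was the 665/620 nm emission ratio from a europium anti-mouse-IgG, anti-phosphoserine antibody and streptavidin-XL665 complex formed over 1 h at 22°C. It was scaled between no-enzyme (100%) and no-compound (0%) wells. Beforehand, compounds (20 µM down to 0.073 nM, 11 points) sat 15 min with roughly 0.2 nM insect-cell-expressed GST-human IRAK4 before phosphorylation of a biotinylated peptide substrate.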

Data set [1] is described as follows: Metabolic stability in human liver microsomes. The conditions noted are these: 1 µM compound; for CLblood, human microsomes: hepatic in vivo blood clearance calculated with well stirred liver model, '(stable)' given beside < 0.01; for Fmax, human microsomes: maximal oral bioavailability calculated with well stirred liver model, 0.5 mg/mL protein, '(stable)' given beside 100.
Description: The in vitro metabolic stability of test compounds was determined by incubating them at 1 µM in a suspension liver microsomes in 100 mM phosphate buffer, pH7.4 (NaH2PO4 x H2O + Na2HPO4 x 2H2O) and at a protein concentration of 0.5 mg/mL at 37° C. The microsomes were activated by adding a co-factor mix containing 8 mM Glukose-6-Phosphat, 4 mM MgCl2, 0.5 mM NADP and 1 IU/mL G-6-P-Dehydrogenase in phosphate buffer, pH 7.4. The metabolic assay was started shortly afterwards by adding the test compound to the incubation at a final volume of 1 mL. Organic solvent in the incubations was limited to ≤0.01 % dimethylsulfoxide (DMSO) and ≤1% acetonitril. During incubation, the microsomal suspensions were continuously shaken at 580 rpm, and aliquots were taken at 2, 8, 16, 30, 45 and 60 min, to which equal volumes of cold methanol were immediately added. Samples were frozen at -20° C over night, subsequently centrifuged for 15 min at 3000 rpm and the supernatant was analyzed with an Agilent 1200 HPLC-system with LCMS/MS detection.
The half-life of a test compound was determined from the concentration-time plot. From the half-life the intrinsic clearances were calculated. Together with the additional parameters liver blood flow, specific liver weight and microsomal protein content the hepatic in vivo blood clearance (CL) and the maximal oral bioavailability (Fmax) were calculated using the "well stirred" liver model. The following parameter values were used: Liver blood flow - 1.32 L/h/kg (human), 2.1 L/h/kg (dog); specific liver weight - 21 g/kg (human), 39 g/kg (dog); microsomal protein content - 40 mg/g.

Molecules are shown by their SMILES.

In turn, `C[C@H]1CN(c2nc(N[C@H]3C[C@H](S(C)(=O)=O)C3)nc3c2cnn3-c2cccc(C(F)F)c2)C[C@@H]1O` (single isomer, unassigned) [II-17-2, (3R*,4S*)-1-(1-[3-(difluoromethyl)phenyl]-6-{[trans-3-(methylsulfonyl)cyclobutyl]amino}-1H-pyrazolo[3,4-d]pyrimidin-4-yl)-4-methylpyrrolidin-3-ol] gave an IC50 against human IRAK4 of 2.1 nM. In addition, in data set [1], the “CLblood, human microsomes” value is 0.28 L/h/kg and the “Fmax, human microsomes” value was 79%.

The compound `C[C@]1(O)C[C@H](Nc2nc(N3C[C@@H](O)[C@H](O)C3)c3cnn(-c4cccc(C(F)(F)F)c4)c3n2)C1` [Example I-108, (3R,4R)-1-(6-{[(1r,3R)-3-hydroxy-3-methylcyclobutyl]amino}-1-[3-(trifluoromethyl)-phenyl]-1H-pyrazolo[3,4-d]pyrimidin-4-yl)pyrrolidine-3,4-diol] displayed an IC50 against human IRAK4 of 3.72 nM. For the same compound, in data set [1], the “CLblood, human microsomes” value is 0.16 L/h/kg and the “Fmax, human microsomes” value was 88%.

At human IRAK4, `CS(=O)(=O)N1CC(Nc2nc(N3CCC(C4(N)CC4)CC3)c3cnn(-c4cccc(OC(F)F)c4)c3n2)C1` [IV-3, 4-[4-(1-aminocyclopropyl)piperidin-1-yl]-1-[3-(difluoromethoxy)phenyl]-N-[1-(methylsulfonyl)azetidin-3-yl]-1H-pyrazolo[3,4-d]pyrimidin-6-amine] displayed an IC50 of 6.61 nM. Also, in data set [1], the “CLblood, human microsomes” value was 0.14 L/h/kg and the “Fmax, human microsomes” value is listed as 89%.

As for `CS(=O)(=O)[C@H]1C[C@H](Nc2nc(N3C[C@H](O)[C@@H](F)C3)c3cnn(-c4cccc(C(F)(F)F)c4)c3n2)C1` [Example I-94, (3S,4S)-4-fluoro-1-(6-{[(1r,3S)-3-(methylsulfonyl)cyclobutyl]amino}-1-[3-(trifluoromethyl)phenyl]-1H-pyrazolo[3,4-d]pyrimidin-4-yl)pyrrolidin-3-ol], inhibition on human IRAK4 was half-maximal at 4.28 nM (IC50). Besides, in data set [1], the “CLblood, human microsomes” value is recorded as 0.16 L/h/kg and the “Fmax, human microsomes” value is given as 88%.

In turn, `O=C1C[C@H](Nc2nc(N3CC(N4CCOCC4)C3)c3cnn(-c4cccc(C(F)F)c4)c3n2)CN1` [II-1, (4S)-4-({1-[3-(difluoromethyl)phenyl]-4-[3-(morpholin-4-yl)azetidin-1-yl]-1H-pyrazolo[3,4-d]pyrimidin-6-yl}amino)pyrrolidin-2-one] registered an IC50 on human IRAK4 of 3.46 nM. Besides, in data set [1], the “CLblood, human microsomes” value is < 0.01 (stable) L/h/kg and the “Fmax, human microsomes” value is on record as 100 (stable) %.

In turn, `CC1(O)CCN(C2CN(c3nc(N[C@H]4C[C@@H](O)C4)nc4c3cnn4-c3cccc(C(F)(F)F)c3)C2)CC1` [Example I-109, 1-(1-{6-[(cis-3-hydroxycyclobutyl)amino]-1-[3-(trifluoromethyl)phenyl]-1H-pyrazolo[3,4-d]pyrimidin-4-yl}azetidin-3-yl)-4-methylpiperidin-4-ol] registered an IC50 on human IRAK4 of 10.6 nM. Besides, in data set [1], the “CLblood, human microsomes” value was 0.33 L/h/kg and the “Fmax, human microsomes” value is 75%.

`C[C@]1(O)C[C@@H](Nc2nc(N3C[C@@H](O)[C@H](O)C3)c3cnn(-c4cccc(C(F)(F)F)c4)c3n2)C1` [Example I-107] came in with an IC50 on human IRAK4 of 8.11 nM. Moreover, in data set [1], the “CLblood, human microsomes” value is reported as 0.05 L/h/kg and the “Fmax, human microsomes” value was 96%.

The compound `NC1(C2CCN(c3nc(NC4CCS(=O)(=O)CC4)nc4c3cnn4-c3cccc(C(F)(F)F)c3)CC2)CC1` [Example I-62, 4-[4-(1-aminocyclopropyl)piperidin-1-yl]-N-(1,1-dioxidotetrahydro-2H-thiopyran-4-yl)-1-[3-(trifluoromethyl)phenyl]-1H-pyrazolo[3,4-d]pyrimidin-6-amine] showed an IC50 against human IRAK4 of 2.57 nM. Moreover, in data set [1], the “CLblood, human microsomes” value is recorded as < 0.01 (stable) L/h/kg and the “Fmax, human microsomes” value is 100 (stable) %.

`O=C1C[C@H](Nc2nc(N3CC(CC(=O)N4CCOCC4)C3)c3cnn(-c4cccc(C(F)(F)F)c4)c3n2)CN1` [Example I-51, (4S)-4-[(4-{3-[2-(morpholin-4-yl)-2-oxoethyl]azetidin-1-yl}-1-[3-(trifluoromethyl)phenyl]-1H-pyrazolo[3,4-d]pyrimidin-6-yl)amino]pyrrolidin-2-one]: on human IRAK4, the IC50 amounted to 2.5 nM. Further, in data set [1], the “CLblood, human microsomes” value was 0.25 L/h/kg and the “Fmax, human microsomes” value is 81%.

For `CC(C)(O)C1CCN(c2nc(N[C@H]3CC[C@@H](O)C3)nc3c2cnn3-c2cccc(C(F)(F)F)c2)CC1` [Example I-29, (1R,3S)-3-({4-[4-(2-hydroxypropan-2-yl)piperidin-1-yl]-1-[3-(trifluoromethyl)phenyl]-1H-pyrazolo[3,4-d]pyrimidin-6-yl}amino)cyclopentanol], the IC50 on human IRAK4 was determined as 10.8 nM. Besides, in data set [1], the “CLblood, human microsomes” value is listed as 0.43 L/h/kg and the “Fmax, human microsomes” value is on record as 68%.

In turn, `O[C@@H]1CC[C@H]1Nc1nc(N2CC(N3CCOCC3)C2)c2cnn(-c3cccc(C(F)(F)F)c3)c2n1` (relative stereo) [Example I-75, rel-(1R,2R)-2-({4-[3-(morpholin-4-yl)azetidin-1-yl]-1-[3-(trifluoromethyl)phenyl]-1H-pyrazolo[3,4-d]pyrimidin-6-yl}amino)cyclobutanol] displayed an IC50 at human IRAK4 of 14 nM. That is a double-digit nanomolar value.

Turning to `CC(C)(O)C1CCN(c2nc(NC3CN(S(=O)(=O)C4CC4)C3)nc3c2cnn3-c2cccc(C(F)F)c2)CC1` [II-30, 2-[1-(6-{[1-(cyclopropylsulfonyl)azetidin-3-yl]amino}-1-[3-(difluoromethyl)phenyl]-1H-pyrazolo[3,4-d]pyrimidin-4-yl)piperidin-4-yl]propan-2-ol], on human IRAK4, the IC50 was determined as 16.2 nM.

For the compound `CS(=O)(=O)[C@H]1C[C@@H](Nc2nc(N3CC(N4CCOCC4)C3)c3cnn(-c4cccc(C(F)(F)F)c4)c3n2)C1` [Example I-55, N-[cis-3-(methylsulfonyl)cyclobutyl]-4-[3-(morpholin-4-yl)azetidin-1-yl]-1-[3-(trifluoromethyl)phenyl]-1H-pyrazolo[3,4-d]pyrimidin-6-amine], the midpoint of inhibition at human IRAK4, the IC50, lay at 15.6 nM.

Take `CN(C)C1CN(c2nc(NC3CCS(=O)(=O)CC3)nc3c2cnn3-c2cccc(C(F)(F)F)c2)C1` [Example I-42, 4-[3-(dimethylamino)azetidin-1-yl]-N-(1,1-dioxidotetrahydro-2H-thiopyran-4-yl)-1-[3-(trifluoromethyl)phenyl]-1H-pyrazolo[3,4-d]pyrimidin-6-amine]: 32 nM corresponded to half-maximal inhibition against human IRAK4 (IC50).

For the compound `CS(=O)(=O)CC1CN(c2nc(N[C@@H]3CNC(=O)C3)nc3c2cnn3-c2cccc(C(F)(F)F)c2)C1` [Example I-35, (4S)-4-[(4-{3-[(methylsulfonyl)methyl]azetidin-1-yl}-1-[3-(trifluoromethyl)phenyl]-1H-pyrazolo[3,4-d]pyrimidin-6-yl)amino]pyrrolidin-2-one], the IC50 on human IRAK4 came to 16.5 nM.

On to `C[C@@]1(O)CCN(c2nc(NC3CN(S(C)(=O)=O)C3)nc3c2cnn3-c2cccc(C(F)F)c2)C1` [II-29, (3R)-1-(1-[3-(difluoromethyl)phenyl]-6-{[1-(methylsulfonyl)azetidin-3-yl]amino}-1H-pyrazolo[3,4-d]pyrimidin-4-yl)-3-methylpyrrolidin-3-ol], for which, on human IRAK4, the half-inhibitory concentration (IC50) came out at 67.1 nM. This IC50 lies about 4.1-fold higher than the previous one.

In turn, `O=S1(=O)CCC(Nc2nc(N3C[C@H](O)[C@@H](F)C3)c3cnn(-c4cccc(OC(F)F)c4)c3n2)CC1` [IV-7, (3S,4S)-1-{1-[3-(difluoromethoxy)phenyl]-6-[(1,1-dioxidotetrahydro-2H-thiopyran-4-yl)amino]-1H-pyrazolo[3,4-d]pyrimidin-4-yl}-4-fluoropyrrolidin-3-ol] had an IC50 against human IRAK4 of 46.4 nM.

With `CC1(N2CCOCC2)CN(c2nc(N[C@H]3C[C@](C)(O)C3)nc3c2cnn3-c2cccc(C(F)(F)F)c2)C1` [Example I-123, trans-1-methyl-3-({4-[3-methyl-3-(morpholin-4-yl)azetidin-1-yl]-1-[3-(trifluoromethyl)-phenyl]-1H-pyrazolo[3,4-d]pyrimidin-6-yl}amino)cyclobutanol], the IC50 at human IRAK4 turned out to be 7.98 nM.

The compound `CC(C)(O)C1CCN(c2nc(N[C@@H]3CCNC3=O)nc3c2cnn3-c2cccc(C(F)(F)F)c2)CC1` [Example I-15, (3R)-3-({4-[4-(2-hydroxypropan-2-yl)piperidin-1-yl]-1-[3-(trifluoromethyl)phenyl]-1H-pyrazolo[3,4-d]pyrimidin-6-yl}amino)pyrrolidin-2-one] registered an IC50 at human IRAK4 of 62 nM.

For the compound `O=C1C[C@H](Nc2nc(N3CC(O)C3)c3cnn(-c4cccc(C(F)(F)F)c4)c3n2)CN1` [Example I-32, (4S)-4-({4-(3-hydroxyazetidin-1-yl)-1-[3-(trifluoromethyl)phenyl]-1H-pyrazolo[3,4-d]pyrimidin-6-yl}amino)pyrrolidin-2-one], the IC50 against human IRAK4 was found to be 28.7 nM.

In turn, `CCS(=O)(=O)[C@H]1C[C@H](Nc2nc(N3CC(N4CCOCC4)C3)c3cnn(-c4cccc(C(F)(F)F)c4)c3n2)C1` [Example I-82, N-[trans-3-(ethylsulfonyl)cyclobutyl]-4-[3-(morpholin-4-yl)azetidin-1-yl]-1-[3-(trifluoromethyl)phenyl]-1H-pyrazolo[3,4-d]pyrimidin-6-amine] yielded an IC50 at human IRAK4 of 11.5 nM.
